Measured values taken from patent publication US7045531B1, “Composition comprising a metal chelator and a method of treating amyloidosis by administering the metal chelator” (The General Hospital Corporation, priority 1997, dated 2006).
Where two headings read alike, the source gives them in different places.

Key:
Aβ1-42 [1] = biological target: T1, Aβ1-42 (Homo sapiens, UniProt P05067); assay: Modulation of SDS-resistant polymerization of Aβ1-42; assay type: biochemical; details: TCEP 100 μM; with and without Cu^2+; over 3 days
Procedure: Solution concentrations of metal ion and H2O2 were 30 μM and 100 μM, respectively. […] Argon was continuously bubbled through the buffer for 2 h (at 20° C.) before the remainder of the incubation components were added.
It is possible that the decreased polymerization may be due to chelation of Cu^2+ by BC, however given the low binding affinity of BC for Cu^2+ compared with Aβ, it seems likely that the chelation of […] by BC prevents it from inducing SDS-resistant Aβ polymerization. Therefore, Aβ may undergo a hydroxyl radical modification that promotes its assembly into SDS-resistant polymers.

AD = details: twice daily deep intramuscular injections; cited from earlier work
Aβ1-42 [2] = biological target: T1, Aβ1-42; assay: Effect of metal chelators on H2O2 production from Aβ1-42; assay type: biochemical; details: chelator 200 μM; 1 μM Fe^3+
Aβ1-40 = Aβ1-40 (Homo sapiens, UniProt P05067); details: pH 7.4; EDTA chelation
[3] = tested on: Cu^2+-induced Aβ1-40 or Aβ1-42 SDS-resistant polymers; assay: Dissolution of in vitro generated SDS-resistant Aβ polymers; assay type: biochemical, human; details: polymers generated at pH 7.4
[4] = Metal reduction assay, Cu^2+ (BC indicator); assay type: biochemical; details: Cu^2+ 10 μM; PBS pH 7.4; 1 hr, 37° C.
Procedure: (§1) Polypeptides (10 μM) or Vitamin C (100 μM), metal ions (10 μM, Fe(NO3)3 or Cu(NO3)2), and reduced metal ion indicators, bathophenanthrolinedisulfonic acid (BP, for Fe^2+, Sigma, 200 μM) or bathocuproinedisulfonic acid (BC, for Cu^+, Sigma, […]), were coincubated in phosphate buffered saline (PBS), pH 7.4, for 1 hr at 37° C. The metal ion solutions were prepared by direct dilution in the buffer from their aqueous stocks purchased from National Institute of Standards and Technology (NIST). Absorbances were then measured at 536 nm (Fe^2+-BP complex) and 483 nm (Cu^+-BC complex), respectively, using a 96-well plate reader (SPECTRAmax 250, Molecular Devices, Calif.). In control samples, both metal ion and indicator were present to determine the background buffer signal. As a further control, both metal ion and peptide were present in the absence of indicator to estimate the contribution of light scattering due to turbidity to the absorbance reading at these wavelengths. The net absorbances (ΔA) at 536 nm or 483 nm were obtained by deducting the absorbances from these controls from the absorbances generated by the peptide and metal in the presence of the respective indicator.

[5] = SDS-resistant polymerization of Aβ peptides with Cu^2+ (Western blot, image analysis); assay type: biochemical; details: after 5 d; for conversion of the monomer to dimer / conversion of the monomer to trimer: Cu^2+ 30 μM
Procedure: Following incubation (37° C.), aliquots of each reaction (2 ng peptide) were collected at 0 d, 1 d, 3 d and 5 d and western blotted using anti-Aβ monoclonal antibody 8E10 (FIG. 9). Migration of the molecular size markers are indicated (kDa). […] It should be noted that other means of visualizing and/or determining the presence or absence of polymerization other than western blot analysis may be used. Such other means include but are not limited to density sedimentation by centrifugation of the samples.
As above, electronic images captured using the Fluoro-S Image Analysis System (Bio-Rad, Hercules, Calif.) were analyzed using Multi-Analyst Software (Bio-Rad, Hercules, Calif.).
(0–30 μM) at pH 7.4 and 6.6 and the samples analyzed by Western blot and the signal quantitated using the Fluoro-S Image Analysis System (Bio-Rad, Hercules, Calif.) as previously described.

[6] = cited from earlier work; for Kd: physiological pH
[7] = Metal reduction assay, Fe^3+ (BP indicator); assay type: biochemical; details: Fe^3+ 10 μM; PBS pH 7.4; 1 hr, 37° C.
Procedure: as §1, with “The metal reduction assay was performed using a 96-well microtiter plate (Costar) based upon a modification of established protocols (Landers, J. W., et al., Amer. Clin. Path. 29:590 (1958); Landers. J. W. et al., Clinica Chimica Acta 3:329 (1958)). Polypeptides” for “Polypeptides”
The concentrations of reduced metal ions (Fe^2+ or Cu^+) were quantified based on the formula: Fe^2+ or Cu^+ (˜M)=A*10^6/(L*M), where L is the measured equivalent vertical pathlength for a well of 300 μL volume as described in the instrument's specifications manual (0.856 cm for Fe^2+; 1.049 cm for Cu^+); M is the known molecular absorbance (M^−1 cm^−1) which is 7124 (for Fe^2+-BP complex) or 2762 (for Cu^+-BC complex).

[8] = Aβ metal-capture ELISA, competition analysis of binding to Cu^2+; details: pH 7.4; read-out: Kd, high affinity saturable Cu^2+ binding site
Procedure: Aβ1-40 (1.5 ng/well) was incubated (37° C., 2 hr) in the wells of Cu^2+ coated microtiter plates (Xenopore, Hawthorne, N.J.) with increasing concentrations of Cu^2+ (1–100 nM) as described by Moir et al., Journal of Biological Chemistry (submitted). Remaining ligand binding sites on well surfaces were blocked with 2% gelatin in tris-buffered saline (TBS) (3 hr at 37° C.) prior to overnight incubation at room temperature with the anti-Aβ mAb 6E10 (Senetek, Maryland Heights, Mich.). Anti-mouse IgG coupled to horseradish peroxidase was then added to each well and incubated for 3 hr at 37° C. Bound antibodies were detected by a 30 minute incubation with stable peroxidase substrate buffer/3,3′,5,5′-Tetramethyl benzidine (SPSB/TMB) buffer, followed by the addition of 2 M sulfuric acid and measurement of the increase in absorbance at 450 nm.
All assays were performed in triplicate and are means±SD, n=3. […] The affinity of Aβ for Cu^2+ is higher than that for Zn^2+ (Bush, A. I., et al., J. Biol. Chem. 269: 12152 (1994)). […] This is supported by the fact that there is both a pH sensitive and insensitive interaction with different metal ions.

[9] = Cu^+ generation / metal reduction (Example 2); assay type: biochemical; details: 10 μM in PBS; Cu^2+ 10 μM; 30 minutes, 37° C.
Procedure: This method is modified from a protocol assaying serum copper and iron (Landers, J. W., et al., Amer. J. Clin. Path. 29:590 (1958)). It is based on the fact that there are optimal visible absorption wavelengths of 483 nm and 535 nm for Cu^+ complexed with bathocuproinedisulfonic (BC) anion and Fe^2+ coordinated by bathophenanthrolinedisulfonic (BP) anion, respectively.
Aβ (10 μM in PBS, pH 7.4 or 6.8, as shown) was incubated for 30 minutes (37° C.) in the presence of Cu^2+ 10 μM±Zn^2+ 10 μM). Cu^+ levels (n=3, ±SD) were assayed against a standard curve.

[10] = TBARS assay of OH. production by peptides; assay type: biochemical; details: 1 μM Fe^3+ or Cu^2+
Procedure: The Thiobarbituric Acid-Reactive Substance (TBARS) assay for incubation mixtures with Fe^3+ or Cu^2+ was performed in a 96-well microtiter format modified from established protocols (Gutteridge et al. Biochim. Biophys. Acta 759: 38–41 (1983)). Aβ peptide species (10 μM) or Vitamin C (100 μM), were incubated with Fe^3+ or Cu^2+ (1 μM) and deoxyribose (7.5 mM, Sigma) in PBS, pH 7.4. Following incubation (37° C., 1 hour), glacial (17 M) acetic acid and 2-thiobarburic acid (1%, w/v in 0.05 M NaOH, Sigma) were added and heated (100° C., 10 min). The final mixtures were placed on ice for 1–3 minutes before absorbances at 532 nm were measured. The net absorbance change for each sample were obtained by deducting the absorbance from a control sample consisting of identical chemical components except for the Vitamin C or Aβ peptides.

T1 sequence (P05067 672-713 limits assumed): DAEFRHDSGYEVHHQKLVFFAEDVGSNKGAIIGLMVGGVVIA
Chain of Aβ1-40 (P05067 672-711 limits assumed): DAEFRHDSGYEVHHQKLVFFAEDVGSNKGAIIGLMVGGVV

Cl.O=C(O)CCP(CCC(=O)O)CCC(=O)O [TCEP, Tris(2-Carboxyethyl)-Phosphine Hydrochloride]
effect on level of polymerization of Aβ1-42 (Aβ1-42 [1]): significantly reduced the level of polymerization

CC(=O)N(O)CCCCCNC(=O)CCC(=O)N(O)CCCCCNC(=O)CCC(=O)N(O)CCCCCN [DFO, Desferrioxamine]
side effects (AD): anaemia
effect on H2O2 formation by Aβ1-42 (Aβ1-42 [2]): no effect

O=C(O)CN(CCN(CC(=O)O)CC(=O)O)CC(=O)O [EDTA, ethylenediaminetetra acetic acid]
reversibility of Cu^2+-induced Aβ1-40 aggregation (Aβ1-40): reversible
effect on amount of Aβ1-40 or Aβ1-42 SDS-resistant polymers [3]: less effective

Aβ1-40: synthetic human Aβ1-40 peptide
available Cu^2+ reduced [4]: 60%
conversion of the monomer to dimer ([5]; pH 6.6): 29%
conversion of the monomer to trimer ([5]; pH 6.6): 2%
conversion of the monomer to dimer ([5]; pH 7.4): 42%
conversion of the monomer to trimer ([5]; pH 7.4): 9%
peptide converted to the SDS-resistant dimer ([5]; no metal, pH 6.6, 7.4 or 9.0): Less than 4%
Kd ([6]; read-out: KD, high affinity zinc binding, 1:1 (Zn^2+:Aβ)): 107 nM
Kd ([6]; read-out: KD, low affinity zinc binding, 2:1 stoichiometry): 5200 nM
available Fe^3+ reduced [7]: 12%
Kd [8]: 0.9 nM

rat Aβ1-40: Rat/mouse Aβ1-40 with substitutions R5G, Y10F, H13R (DAEFGHDSGFEVRHQKLVFFAEDVGSNKGAIIGLMVGGVV; Amyloid-beta protein 40; UniProt P12023 672-711, looked up, fragment)
available Cu^2+ reduced [4]: reduced no Cu^2+
Cu^2+ reduction / redox reactivity [9]: does not manifest the redox reactivity
KA, zinc, single binding site [6]: 3.8 µM
available Fe^3+ reduced [7]: did not significantly facilitate the reduction of Fe^3+
OH. generation [10]: did not generate OH.
